Measurements: paper PMC5218480 (PLoS ONE, 2017)

System: MV-4-11 cells
Assay: Gene expression microarray analysis (Affymetrix PrimeView) and GSEA
Format: cell-based, human
Set-up: RFU PODN (11730768_x_at) / Fold change /veh PODN (11730768_x_at) / RFU LINC00158 (11744669_a_at) / Fold change /veh LINC00158 (11744669_a_at) / RFU DUSP10 (11751237_a_at) / Fold change /veh DUSP10 (11751237_a_at) / RFU ID3 (11757404_x_at) / Fold change /veh ID3 (11757404_x_at) / RFU PLEKHG5 (11737974_s_at) / Fold change /veh PLEKHG5 (11737974_s_at) / RFU LRRC4B (11730491_at) / Fold change /veh LRRC4B (11730491_at) / RFU GIMAP4 (11747438_a_at) / Fold change /veh GIMAP4 (11747438_a_at) / RFU KRT8 (11758183_x_at) / Fold change /veh KRT8 (11758183_x_at) / RFU CNN1 (11734310_a_at) / Fold change /veh CNN1 (11734310_a_at) / RFU VPS37D (11726825_at) / Fold change /veh VPS37D (11726825_at) / RFU C10orf10 (11716522_x_at) / Fold change /veh C10orf10 (11716522_x_at) / RFU KIR2DL2 /// KIR2DL4 /// KIR2DL5A /// KIR2DL5B /// KIR2DS1 /// KIR2DS2 /// KIR2DS3 /// KIR2DS4 /// KIR3DL3 /// KIR3DL3 /// KIR3DS1 (11738374_at) / Fold change /veh KIR2DL2 /// KIR2DL4 /// KIR2DL5A /// KIR2DL5B /// KIR2DS1 /// KIR2DS2 /// KIR2DS3 /// KIR2DS4 /// KIR3DL3 /// KIR3DL3 /// KIR3DS1 (11738374_at) / RFU C1QL1 (11718748_at) / Fold change /veh C1QL1 (11718748_at) / RFU TMPRSS4 (11747572_a_at) / Fold change /veh TMPRSS4 (11747572_a_at) / RFU HAMP (11756126_x_at) / Fold change /veh HAMP (11756126_x_at) / RFU RNFT2 (11725882_a_at) / Fold change /veh RNFT2 (11725882_a_at) / RFU NR4A2 (11747474_a_at) / Fold change /veh NR4A2 (11747474_a_at) / RFU ABCC12 (11746883_a_at) / Fold change /veh ABCC12 (11746883_a_at) / RFU TMEM136 (11760407_x_at) / Fold change /veh TMEM136 (11760407_x_at) / RFU CLDN22 /// WWC2 (11732394_at) / Fold change /veh CLDN22 /// WWC2 (11732394_at) / RFU HLA-DPB1 (11760878_x_at) / Fold change /veh HLA-DPB1 (11760878_x_at) / RFU SPINT1 (11716480_a_at) / Fold change /veh SPINT1 (11716480_a_at) / RFU GAP43 (11754022_s_at) / Fold change /veh GAP43 (11754022_s_at) / RFU A4GNT (11735810_at) / Fold change /veh A4GNT (11735810_at) / RFU PRB3 (11715151_x_at) / Fold change /veh PRB3 (11715151_x_at) / RFU TUBB4B (11761932_at) / Fold change /veh TUBB4B (11761932_at) / RFU CAPN14 (11732068_a_at) / Fold change /veh CAPN14 (11732068_a_at) / RFU TMCC2 (11721928_a_at) / Fold change /veh TMCC2 (11721928_a_at) / RFU IRGQ (11745062_a_at) / Fold change /veh IRGQ (11745062_a_at) / RFU FAM174B (11720279_a_at) / Fold change /veh FAM174B (11720279_a_at) / RFU TMPRSS4 (11748680_a_at) / Fold change /veh TMPRSS4 (11748680_a_at) / RFU FAM212B (11763350_a_at) / Fold change /veh FAM212B (11763350_a_at) / RFU PLEKHG5 (11743358_a_at) / Fold change /veh PLEKHG5 (11743358_a_at) / RFU ZSCAN30 (11745921_a_at) / Fold change /veh ZSCAN30 (11745921_a_at) / RFU CMKLR1 (11741424_a_at) / Fold change /veh CMKLR1 (11741424_a_at) / RFU LOC101060620 /// MAPK8IP1 (11723275_at) / Fold change /veh LOC101060620 /// MAPK8IP1 (11723275_at) / RFU SPTSSB (11747773_x_at) / Fold change /veh SPTSSB (11747773_x_at) / RFU PRSS12 (11739890_at) / Fold change /veh PRSS12 (11739890_at) / RFU BIN1 (11741810_x_at) / Fold change /veh BIN1 (11741810_x_at) / RFU WNT11 (11732464_a_at) / Fold change /veh WNT11 (11732464_a_at) / RFU C10orf10 (11716521_a_at) / Fold change /veh C10orf10 (11716521_a_at) / RFU C5orf56 (11738089_at) / Fold change /veh C5orf56 (11738089_at) / RFU CYB561 (11721691_x_at) / Fold change /veh CYB561 (11721691_x_at) / RFU ANKRD19P (11752326_a_at) / Fold change /veh ANKRD19P (11752326_a_at) / RFU OR2T12 /// OR2T33 /// OR2T8 (11738714_s_at) / Fold change /veh OR2T12 /// OR2T33 /// OR2T8 (11738714_s_at) / RFU VCAN (11748164_a_at) / Fold change /veh VCAN (11748164_a_at) / RFU JSRP1 (11732532_at) / Fold change /veh JSRP1 (11732532_at) / RFU KRTAP10-11 (11738290_x_at) / Fold change /veh KRTAP10-11 (11738290_x_at) / RFU MYO3A (11730013_a_at) / Fold change /veh MYO3A (11730013_a_at) / RFU EBF3 (11725865_a_at) / Fold change /veh EBF3 (11725865_a_at) / RFU CAMK2N1 (11719241_x_at) / Fold change /veh CAMK2N1 (11719241_x_at) / RFU C5orf56 (11738088_a_at) / Fold change /veh C5orf56 (11738088_a_at) / RFU OLFML3 (11715873_a_at) / Fold change /veh OLFML3 (11715873_a_at) / RFU LOC100653217 /// NTM (11731650_a_at) / Fold change /veh LOC100653217 /// NTM (11731650_a_at) / RFU MAPK11 (11762145_a_at) / Fold change /veh MAPK11 (11762145_a_at) / RFU FIZ1 (11724087_x_at) / Fold change /veh FIZ1 (11724087_x_at) / RFU OASL (11726364_x_at) / Fold change /veh OASL (11726364_x_at) / RFU SOX15 (11748057_x_at) / Fold change /veh SOX15 (11748057_x_at) / RFU CD79A (11719716_a_at) / Fold change /veh CD79A (11719716_a_at) / RFU HIST1H1D (11736915_at) / Fold change /veh HIST1H1D (11736915_at) / RFU CASKIN2 (11723855_a_at) / Fold change /veh CASKIN2 (11723855_a_at) / RFU LOC730098 (11760151_x_at) / Fold change /veh LOC730098 (11760151_x_at) / RFU OR4N2 (11742367_at) / Fold change /veh OR4N2 (11742367_at) / RFU PRRT2 (11749266_a_at) / Fold change /veh PRRT2 (11749266_a_at) / RFU SNX32 (11753110_a_at) / Fold change /veh SNX32 (11753110_a_at) / RFU CDHR5 (11726645_a_at) / Fold change /veh CDHR5 (11726645_a_at) / RFU RCAN1 (11760418_a_at) / Fold change /veh RCAN1 (11760418_a_at) / RFU FAM167A (11723789_a_at) / Fold change /veh FAM167A (11723789_a_at) / RFU FAM26E (11764081_at) / Fold change /veh FAM26E (11764081_at) / RFU ISYNA1 (11749810_s_at) / Fold change /veh ISYNA1 (11749810_s_at) / RFU ACY1 (11761880_at) / Fold change /veh ACY1 (11761880_at) / RFU 11764098_at / Fold change /veh 11764098_at / RFU SAMD14 (11745864_x_at) / Fold change /veh SAMD14 (11745864_x_at) / RFU NPB (11741838_a_at) / Fold change /veh NPB (11741838_a_at) / RFU TMPRSS6 (11731388_a_at) / Fold change /veh TMPRSS6 (11731388_a_at) / RFU KRTAP10-2 (11738614_at) / Fold change /veh KRTAP10-2 (11738614_at) / RFU ARHGAP8 /// PRR5-ARHGAP8 (11727945_x_at) / Fold change /veh ARHGAP8 /// PRR5-ARHGAP8 (11727945_x_at) / RFU KRTAP5-7 /// NADSYN1 (11734609_at) / Fold change /veh KRTAP5-7 /// NADSYN1 (11734609_at) / RFU RASL12 (11751679_a_at) / Fold change /veh RASL12 (11751679_a_at) / RFU CDKN2B (11736163_a_at) / Fold change /veh CDKN2B (11736163_a_at) / RFU PRF1 (11729649_at) / Fold change /veh PRF1 (11729649_at) / RFU, ZNF638 /// ZNF638-IT1 / Fold change vs veh, ZNF638 /// ZNF638-IT1 / RFU, PANK3 / Fold change vs veh, PANK3 / RFU, SH3YL1 / Fold change vs veh, SH3YL1 / RFU, ZEB2 / Fold change vs veh, ZEB2 / RFU, NRIP1 / Fold change vs veh, NRIP1 / RFU, PTTG1IP / Fold change vs veh, PTTG1IP / RFU, CAPN2 / Fold change vs veh, CAPN2 / RFU, MED14 / Fold change vs veh, MED14 / RFU, SNORA58 / Fold change vs veh, SNORA58 / RFU, C1orf63 / Fold change vs veh, C1orf63 / RFU, LRRFIP1 / Fold change vs veh, LRRFIP1 / RFU, NDUFAF7 / Fold change vs veh, NDUFAF7 / RFU, SLC12A2 / Fold change vs veh, SLC12A2 / RFU, IBTK / Fold change vs veh, IBTK / RFU, ESF1 / Fold change vs veh, ESF1 / Fold change vs veh, TMEM50B / RFU, TAOK1 / Fold change vs veh, TAOK1 / RFU, ACBD3 / Fold change vs veh, ACBD3 / RFU, TMA16 / Fold change vs veh, TMA16 / RFU, RWDD3 / Fold change vs veh, RWDD3 / RFU, BCAT1 / Fold change vs veh, BCAT1 / RFU, EDEM3 / Fold change vs veh, EDEM3 / RFU, TMEM33 / Fold change vs veh, TMEM33 / RFU, WDR75 / Fold change vs veh, WDR75 / RFU, AHCTF1 / Fold change vs veh, AHCTF1 / RFU, TFRC / Fold change vs veh, TFRC / RFU, ZDHHC17 / Fold change vs veh, ZDHHC17 / RFU, NOM1 / Fold change vs veh, NOM1 / RFU, ARL8B / Fold change vs veh, ARL8B / RFU, ZBTB11 / Fold change vs veh, ZBTB11 / RFU, TAMM41 / Fold change vs veh, TAMM41 / RFU, KIAA1704 /// LOC100996395 / Fold change vs veh, KIAA1704 /// LOC100996395 / RFU, ING1 / Fold change vs veh, ING1 / RFU, TRMT61B / Fold change vs veh, TRMT61B / RFU, FUBP3 / Fold change vs veh, FUBP3 / RFU, TP53 / Fold change vs veh, TP53 / RFU, TNKS2 / Fold change vs veh, TNKS2 / RFU, ZFP14 / Fold change vs veh, ZFP14 / RFU, ACTR2 / Fold change vs veh, ACTR2 / RFU, PPP3R1 / Fold change vs veh, PPP3R1 / RFU, PIK3R1 / Fold change vs veh, PIK3R1 / RFU, HNRNPA1 / Fold change vs veh, HNRNPA1 / RFU, RNF170 / Fold change vs veh, RNF170 / RFU, ZNF28 / Fold change vs veh, ZNF28 / RFU, RNGTT / Fold change vs veh, RNGTT / RFU, OGT / Fold change vs veh, OGT / RFU, BRD1 / Fold change vs veh, BRD1 / RFU, MARS / Fold change vs veh, MARS / RFU, ZNF655 / Fold change vs veh, ZNF655 / RFU, FAHD1 / Fold change vs veh, FAHD1 / RFU, BDP1 / Fold change vs veh, BDP1 / RFU, LRRCC1 / Fold change vs veh, LRRCC1 / RFU, ARID1A / Fold change vs veh, ARID1A / RFU, ZNF146 / Fold change vs veh, ZNF146 / RFU, ZNF330 / Fold change vs veh, ZNF330 / RFU, GPN3 / Fold change vs veh, GPN3 / RFU, C9orf123 / Fold change vs veh, C9orf123 / RFU, N4BP2L2 / Fold change vs veh, N4BP2L2 / RFU, ARFIP1 / Fold change vs veh, ARFIP1 / RFU, FAM179B / Fold change vs veh, FAM179B / RFU, BCL10 / Fold change vs veh, BCL10 / RFU, UHRF1BP1L / Fold change vs veh, UHRF1BP1L / RFU, BET1 / Fold change vs veh, BET1 / RFU, CNOT2 / Fold change vs veh, CNOT2 / RFU, ZNF268 / Fold change vs veh, ZNF268 / Fold change vs veh, ZNF507 / RFU, DGCR2 / Fold change vs veh, DGCR2 / RFU, WDSUB1 / Fold change vs veh, WDSUB1 / Fold change vs veh, HSP90B1 /// MIR3652 / RFU, ADSS / Fold change vs veh, ADSS / RFU, GK / Fold change vs veh, GK / RFU, ZNF148 / Fold change vs veh, ZNF148 / RFU, TAF9 / Fold change vs veh, TAF9 / RFU, SLC1A5 / Fold change vs veh, SLC1A5 / RFU, SLMO2 / Fold change vs veh, SLMO2 / RFU, ABCC4 / Fold change vs veh, ABCC4 / RFU, LOC101060439 /// RAP1B / Fold change vs veh, LOC101060439 /// RAP1B / RFU, RFX7 / Fold change vs veh, RFX7 / RFU, GTPBP10 / Fold change vs veh, GTPBP10 / RFU, CNEP1R1 / Fold change vs veh, CNEP1R1 / RFU, BIVM-ERCC5 /// ERCC5 / Fold change vs veh, BIVM-ERCC5 /// ERCC5 / RFU, ILF3 / Fold change vs veh, ILF3 / RFU 11762660_at / Fold change /veh 11762660_at / RFU VCAN (11757783_s_at) / Fold change /veh VCAN (11757783_s_at) / RFU DDX43 (11728927_at) / Fold change /veh DDX43 (11728927_at) / RFU KRT8 (11758188_x_at) / Fold change /veh KRT8 (11758188_x_at) / RFU NKD1 (11759106_at) / Fold change /veh NKD1 (11759106_at) / RFU SRD5A1 (11742802_a_at) / Fold change /veh SRD5A1 (11742802_a_at) / RFU TPSAB1 /// TPSB2 (11721975_s_at) / Fold change /veh TPSAB1 /// TPSB2 (11721975_s_at) / RFU GSTM3 (11746129_a_at) / Fold change /veh GSTM3 (11746129_a_at) / RFU IL23R (11737362_x_at) / Fold change /veh IL23R (11737362_x_at) / RFU TMEM51 (11727254_a_at) / Fold change /veh TMEM51 (11727254_a_at) / RFU PIWIL2 (11732686_x_at) / Fold change /veh PIWIL2 (11732686_x_at) / RFU ORM1 (11744905_x_at) / Fold change /veh ORM1 (11744905_x_at) / RFU CCDC152 (11743942_at) / Fold change /veh CCDC152 (11743942_at) / RFU ECM1 (11717891_a_at) / Fold change /veh ECM1 (11717891_a_at) / RFU IL23R (11748794_a_at) / Fold change /veh IL23R (11748794_a_at) / RFU TNFAIP8L3 (11732012_x_at) / Fold change /veh TNFAIP8L3 (11732012_x_at) / RFU MBOAT4 (11741988_at) / Fold change /veh MBOAT4 (11741988_at) / RFU 11764193_at / Fold change /veh 11764193_at / RFU TMEM53 (11763286_at) / Fold change /veh TMEM53 (11763286_at) / RFU MAGEB2 (11727129_at) / Fold change /veh MAGEB2 (11727129_at) / RFU TMEM200A (11744735_a_at) / Fold change /veh TMEM200A (11744735_a_at) / RFU CCDC152 (11751479_a_at) / Fold change /veh CCDC152 (11751479_a_at) / RFU FAM211A (11726209_a_at) / Fold change /veh FAM211A (11726209_a_at) / RFU RGS16 (11746705_a_at) / Fold change /veh RGS16 (11746705_a_at) / RFU VCAN (11755009_s_at) / Fold change /veh VCAN (11755009_s_at) / RFU RHOB (11743442_s_at) / Fold change /veh RHOB (11743442_s_at) / RFU RGS16 (11720943_a_at) / Fold change /veh RGS16 (11720943_a_at) / RFU RGS16 (11720944_at) / Fold change /veh RGS16 (11720944_at) / RFU, VPS4B / Fold change vs veh, VPS4B / RFU, CREB1 / Fold change vs veh, CREB1 / RFU, DNAJC13 / Fold change vs veh, DNAJC13 / RFU, GNAQ / Fold change vs veh, GNAQ / RFU, CDK5R1 / Fold change vs veh, CDK5R1 / RFU, ZRANB3 / Fold change vs veh, ZRANB3 / RFU, CUL4A / Fold change vs veh, CUL4A / RFU, CCNY / Fold change vs veh, CCNY / RFU, UFL1 / Fold change vs veh, UFL1 / RFU, COG3 / Fold change vs veh, COG3 / RFU, DIAPH2 / Fold change vs veh, DIAPH2 / RFU, SKA2 / Fold change vs veh, SKA2 / RFU, AFF3 / Fold change vs veh, AFF3 / RFU, LMF1 / Fold change vs veh, LMF1 / RFU, IPO11 / Fold change vs veh, IPO11 / RFU, DFFB / Fold change vs veh, DFFB / RFU, FOXP1 / Fold change vs veh, FOXP1 / RFU, CARD8 / Fold change vs veh, CARD8 / RFU, STRN3 / Fold change vs veh, STRN3 / RFU, ADK / Fold change vs veh, ADK / RFU, RASSF2 / Fold change vs veh, RASSF2 / RFU, WIPF1 / Fold change vs veh, WIPF1 / RFU, LARP1B / Fold change vs veh, LARP1B / RFU, RASA1 / Fold change vs veh, RASA1 / RFU, RB1 / Fold change vs veh, RB1 / RFU, PPFIA1 / Fold change vs veh, PPFIA1 / RFU, MAT2A / Fold change vs veh, MAT2A / RFU, CCT5 / Fold change vs veh, CCT5 / RFU, WDR92 / Fold change vs veh, WDR92 / RFU, CUX1 / Fold change vs veh, CUX1 / RFU, TTC7A / Fold change vs veh, TTC7A / RFU, TMEM135 / Fold change vs veh, TMEM135 / RFU, DEPTOR / Fold change vs veh, DEPTOR / RFU, CPM / Fold change vs veh, CPM / RFU, DNAJB6 / Fold change vs veh, DNAJB6 / RFU, CACNA2D3 / Fold change vs veh, CACNA2D3 / RFU, DTX4 / Fold change vs veh, DTX4 / RFU, TFCP2 / Fold change vs veh, TFCP2 / RFU, GMCL1 /// GMCL1P1 / Fold change vs veh, GMCL1 /// GMCL1P1 / RFU, AEBP2 / Fold change vs veh, AEBP2 / RFU, SNHG1 /// SNORD22 /// SNORD25 /// SNORD26 /// SNORD27 /// SNORD28 /// SNORD29 /// SNORD31 / Fold change vs veh, SNHG1 /// SNORD22 /// SNORD25 /// SNORD26 /// SNORD27 /// SNORD28 /// SNORD29 /// SNORD31 / Fold change (Aza/veh), C12orf56 (ProbeSet 11735607_a_at) / Fold change (ACY-1035/veh), C12orf56 (ProbeSet 11735607_a_at) / Fold change (Aza/veh), FGFR1OP (ProbeSet 11751329_s_at) / Fold change (ACY-1035/veh), FGFR1OP (ProbeSet 11751329_s_at) / Fold change (Aza/veh), VPS36 (ProbeSet 11739960_a_at) / Fold change (ACY-1035/veh), VPS36 (ProbeSet 11739960_a_at) / RFU SYPL1 (11715823_x_at) / Fold change /veh SYPL1 (11715823_x_at) / RFU IGFBP7 (11715501_s_at) / Fold change /veh IGFBP7 (11715501_s_at) / RFU REEP3 (11722064_at) / Fold change /veh REEP3 (11722064_at) / RFU IGLL1 (11728026_x_at) / Fold change /veh IGLL1 (11728026_x_at): dose or concentration left out as unconfirmed
Conditions: ProbeSet 11723944_a_at; LIST B

Nc1ccc(-c2cccs2)cc1NC(=O)c1ccc2c(c1)cc(C1CC1)n2CCN1CCOCC1 [ACY-1035]
Fold change vs veh, PTTG1IP: 0.91
